Drawing on article PMC7034075, “Exploring structure-activity relationship of S-substituted 2-mercaptoquinazolin-4(3H)-one including 4-ethylbenzenesulfonamides as human carbonic anhydrase inhibitors” (Journal of Enzyme Inhibition and Medicinal Chemistry, 2020), this text covers Ki for twelve compounds.

For orientation: Ki means the equilibrium dissociation constant of an inhibitor or competing ligand from its target. Read a high Ki as lower affinity.

Assay in all cases: stopped-flow CO2 hydrase assay
Common to all, as to format: biochemical

In one experiment the target is T1, hCA IX (Homo sapiens, UniProt Q16790).
T1 construct: gene CA9; recombinant, obtained in-house
An excerpt:
stopped-flow CO2 hydrase assay on hCA IX

For another experiment, the target named is T2, hCA XII (Homo sapiens, UniProt O43570).
T2 construct: gene CA12; recombinant, obtained in-house
T2 sequence (O43570 25-354): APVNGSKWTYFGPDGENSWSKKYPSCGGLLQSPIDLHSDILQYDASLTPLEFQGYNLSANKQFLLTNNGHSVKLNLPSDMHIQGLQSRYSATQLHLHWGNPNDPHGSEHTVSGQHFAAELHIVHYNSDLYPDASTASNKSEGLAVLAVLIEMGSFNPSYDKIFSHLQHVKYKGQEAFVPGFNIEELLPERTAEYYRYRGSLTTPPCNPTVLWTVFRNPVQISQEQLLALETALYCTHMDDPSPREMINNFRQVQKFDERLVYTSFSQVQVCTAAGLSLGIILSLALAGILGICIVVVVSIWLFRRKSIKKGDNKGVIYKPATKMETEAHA
The text has this: stopped-flow CO2 hydrase assay on hCA XII

Another experiment addresses T3, hCA I (Homo sapiens, UniProt P00915).
T3 construct: gene CA1; recombinant, obtained in-house
The text has this: stopped-flow CO2 hydrase assay on hCA I

A further experiment addresses T4, hCA II (Homo sapiens, UniProt P00918).
T4 construct: gene CA2; recombinant, obtained in-house
An excerpt:
stopped-flow CO2 hydrase assay on hCA II

[1] abbreviates: CO2 hydration, mean of […] assays.

Structures are written as SMILES. Like-named read-outs stand apart in the source and are kept apart here.

T3 sequence (P00915 2-261): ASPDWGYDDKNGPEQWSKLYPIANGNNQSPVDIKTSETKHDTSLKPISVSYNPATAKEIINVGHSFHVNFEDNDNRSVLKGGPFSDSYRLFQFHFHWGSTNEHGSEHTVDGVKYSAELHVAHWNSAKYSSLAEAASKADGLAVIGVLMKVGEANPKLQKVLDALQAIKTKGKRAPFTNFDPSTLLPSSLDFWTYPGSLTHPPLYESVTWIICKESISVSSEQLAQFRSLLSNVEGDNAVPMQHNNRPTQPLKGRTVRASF

On to `CSc1nc2ccccc2c(=O)n1CCc1ccc(S(N)(=O)=O)cc1` [compound 2, 4-(2-(2-(Methylthio)-4-oxoquinazolin-3(4H)-yl)ethyl)benzenesulfonamide], for which the inhibitory constant (Ki) was determined as 9.5 nM at hCA IX and 3.1 nM on hCA XII.
For `CCSc1nc2ccccc2c(=O)n1CCc1ccc(S(N)(=O)=O)cc1` [compound 3, 4-(2-(2-(Ethylthio)-4-oxoquinazolin-3(4H)-yl)ethyl)benzenesulfonamide] the same measures were 7.1 nM and 3.9 nM.
On to `N#CCSc1nc2ccccc2c(=O)n1CCc1ccc(S(N)(=O)=O)cc1` [compound 4, 4-(2-(2-((Cyanomethyl)thio)-4-oxoquinazolin-3(4H)-yl)ethyl)benzenesulfonamide], for which the values for the inhibitory constant (Ki) on hCA IX and on hCA XII were 12.6 nM and 8.6 nM, respectively.
For the compound `NS(=O)(=O)c1ccc(CCn2c(SCc3ccccc3)nc3ccccc3c2=O)cc1` [compound 5, 4-(2-(2-(Benzylthio)-4-oxoquinazolin-3(4H)-yl)ethyl)benzenesulfonamide], the values for the Ki on hCA IX and on hCA XII were 50.7 nM and 38.4 nM, respectively.
In the same order, the values of `NS(=O)(=O)c1ccc(CCn2c(SCc3ccc(Br)cc3)nc3ccccc3c2=O)cc1` [compound 6, 4-(2-(2-((4-Bromobenzyl)thio)-4-oxoquinazolin-3(4H)-yl)ethyl)benzenesulfonamide] are 64.1 nM and 57 nM.
For `NS(=O)(=O)c1ccc(CCn2c(SCc3ccc(Cl)cc3)nc3ccccc3c2=O)cc1` [compound 7, 4-(2-(2-((4-Chlorobenzyl)thio)-4-oxoquinazolin-3(4H)-yl)ethyl)benzenesulfonamide] the same measures were 34.2 nM and 65.6 nM.
For `N#Cc1ccc(CSc2nc3ccccc3c(=O)n2CCc2ccc(S(N)(=O)=O)cc2)cc1` [compound 8, 4-(2-(2-((4-Cyanobenzyl)thio)-4-oxoquinazolin-3(4H)-yl)ethyl)benzenesulfonamide] the same measures were 47.3 nM and 17.6 nM.
For `NS(=O)(=O)c1ccc(CCn2c(SCc3ccc(F)cc3)nc3ccccc3c2=O)cc1` [compound 9, 4-(2-(2-((4-Fluorobenzyl)thio)-4-oxoquinazolin-3(4H)-yl)ethyl)benzenesulfonamide], the Ki on hCA IX stood at 28.9 nM; on hCA XII (setting [1]) it was 17.2 nM.
On to `Cc1ccc(CSc2nc3ccccc3c(=O)n2CCc2ccc(S(N)(=O)=O)cc2)cc1` [compound 10, 4-(2-(2-((4-Methylbenzyl)thio)-4-oxoquinazolin-3(4H)-yl)ethyl)benzenesulfonamide], for which the Ki at hCA IX was 57.1 nM; at hCA XII it was 28.2 nM.
In the case of `NS(=O)(=O)c1ccc(CCn2c(SCc3ccc([N+](=O)[O-])cc3)nc3ccccc3c2=O)cc1` [compound 11, 4-(2-(2-((4-Nitrobenzyl)thio)-4-oxoquinazolin-3(4H)-yl)ethyl)benzenesulfonamide], the Ki stood at 19.3 nM on hCA IX (setting [1]) and 25.6 nM at hCA XII.
As for `NS(=O)(=O)c1ccc(CCn2c(SCCN3CCCCC3)nc3ccccc3c2=O)cc1` [compound 12, 4-(2-(4-Oxo-2-((2-(piperidin-1-yl)ethyl)thio)quinazolin-3(4H)-yl)ethyl)benzenesulfonamide], the Ki on hCA I came to 532 nM; on hCA IX, 22.4 nM; on hCA XII, 20.2 nM.
As to `NS(=O)(=O)c1ccc(CCn2c(SCCCN3C(=O)c4ccccc4C3=O)nc3ccccc3c2=O)cc1` [compound 13, 4-(2-(2-((3-(1,3-Dioxoisoindolin-2-yl)propyl)thio)-4-oxoquinazolin-3(4H)-yl)ethyl)benzenesulfonamide], the Ki on hCA II amounted to 86.6 nM; on hCA I it was 321 nM; at hCA IX it was 93.6 nM; at hCA XII, 71.4 nM.
